{"source": "patent US11225462B2", "about": "“Crystal forms of oxypyridine amide derivative and preparation method therefor” (JIANGSU HENGRUI MEDICINE CO., LTD., priority 2018, dated 2022)", "key": {"[1]": {"experiment": "DVS (dynamic vapor sorption) hygroscopicity characterization", "type": "physicochemical", "procedure": "DVS refers to dynamic vapor sorption and is determined using SMS DVS Advantage at 25° C., with the humidity change of 50%-95%-0%-95%-50% and the stepping of 10% (5% for the last step) (the specific humidity range is determined in accordance with the corresponding plot, and the methods listed herein are those most commonly used), and the standard for determination is as follow: dm/dt is not more than 0.02%, and Tmax is not more than 360 min."}, "[2]": {"experiment": "Influencing factor experiments (light, high temperature, high humidity, 30 days)", "type": "physicochemical", "settings": "for Crystal form: day 5 to day 10, time not clear", "procedure": "Crystal forms A, B, D and F of the compound of formula (I) were spread and left open to the air, and under conditions of high temperature (40° C. and 60° C.), light (4500 Lux), high humidity (RH 75% and RH 90%), the stability thereof were investigated for a period of 30 days."}}}
{"smiles": "CCC(=O)c1ccc(Cl)cc1-c1cc(=O)n([C@@H](CCOC(C)(C)C)C(=O)Nc2ccc(C(=O)O)cc2)cc1OC", "note": "[Crystal form D, (S)-4-(4-(tert-butoxy)-2-(4-(5-chloro-2-propionylphenyl)-5-methoxy-2-oxopyridin-1(2H)-yl)butanamido)benzoic acid]", "values": [{"measurement": "mass increase under normal conditions", "setting": "[1]; 25° C. and 60% RH", "value": "about 2.143%"}, {"measurement": "hygroscopicity according to guidelines for drug hygroscopicity test in China Pharmacopoeia (2015 edition)", "setting": "[1]; 25° C., 10% RH to 80% RH", "value": "hygroscopic (less than 15% but not less than 2%)"}, {"measurement": "mass increase as the humidity increases", "setting": "[1]; 25° C., 10% RH to 80% RH", "value": "about 2.420%"}, {"measurement": "mass increase under accelerated test conditions", "setting": "[1]; 70% RH", "value": "about 2.494%"}, {"measurement": "mass increase under extreme conditions", "setting": "[1]; 90% RH", "value": "about 3.422%"}, {"measurement": "crystal form before and after DVS detection (XRPD comparison)", "setting": "[1]; after DVS detection", "value": "crystallinity of the crystal form become worse"}, {"measurement": "desorption process and adsorption process of the sample", "setting": "[1]; humidity change from 0% to 95%", "value": "do not coincide"}, {"measurement": "% Purity", "setting": "[2]; 40° C., 5 days", "value": 99.53, "unit": "%"}, {"measurement": "Color and trait", "setting": "[2]; 40° C., 5 days", "value": "Off-white"}, {"measurement": "% Purity", "setting": "[2]; 40° C., 10 days", "value": 99.02, "unit": "%"}, {"measurement": "Color and trait", "setting": "[2]; 40° C., 10 days", "value": "Off-white"}, {"measurement": "% Purity", "setting": "[2]; 40° C., 30 days", "value": 98.95, "unit": "%"}, {"measurement": "Color and trait", "setting": "[2]; 40° C., 30 days", "value": "Off-white"}, {"measurement": "Crystal form", "setting": "[2]; 40° C.", "value": "Amor-"}, {"measurement": "% Purity", "setting": "[2]; 60° C., 5 days", "value": 99.40, "unit": "%"}, {"measurement": "Color and trait", "setting": "[2]; 60° C., 5 days", "value": "Off-white"}, {"measurement": "% Purity", "setting": "[2]; 60° C., 10 days", "value": 99.31, "unit": "%"}, {"measurement": "Color and trait", "setting": "[2]; 60° C., 10 days", "value": "Off-white"}, {"measurement": "% Purity", "setting": "[2]; 60° C., 30 days", "value": 99.09, "unit": "%"}, {"measurement": "Color and trait", "setting": "[2]; 60° C., 30 days", "value": "Off-white"}, {"measurement": "Crystal form", "setting": "[2]; 60° C.", "value": "Amor-"}, {"measurement": "% Purity", "setting": "[2]; 4500 Lux, 5 days", "value": 99.58, "unit": "%"}, {"measurement": "Color and trait", "setting": "[2]; 4500 Lux, 5 days", "value": "Off-white"}, {"measurement": "% Purity", "setting": "[2]; 4500 Lux, 10 days", "value": 99.57, "unit": "%"}, {"measurement": "Color and trait", "setting": "[2]; 4500 Lux, 10 days", "value": "Off-white"}, {"measurement": "% Purity", "setting": "[2]; 4500 Lux, 30 days", "value": 99.26, "unit": "%"}, {"measurement": "Color and trait", "setting": "[2]; 4500 Lux, 30 days", "value": "Off-white"}, {"measurement": "Crystal form", "setting": "[2]; 4500 Lux", "value": "Amor-"}, {"measurement": "% Purity", "setting": "[2]; Initial condition, day 0", "value": 99.59, "unit": "%"}, {"measurement": "Color and trait", "setting": "[2]; Initial condition, day 0", "value": "Off-white"}, {"measurement": "% Purity", "setting": "[2]; RH 75%, 5 days", "value": 99.56, "unit": "%"}, {"measurement": "% Weight gain", "setting": "[2]; RH 75%, 5 days", "value": 5.30, "unit": "%"}, {"measurement": "Color and trait", "setting": "[2]; RH 75%, 5 days", "value": "Off-white"}, {"measurement": "% Purity", "setting": "[2]; RH 75%, 10 days", "value": 99.53, "unit": "%"}, {"measurement": "% Weight gain", "setting": "[2]; RH 75%, 10 days", "value": 5.48, "unit": "%"}, {"measurement": "Color and trait", "setting": "[2]; RH 75%, 10 days", "value": "Off-white"}, {"measurement": "% Purity", "setting": "[2]; RH 75%, 30 days", "value": 99.55, "unit": "%"}, {"measurement": "% Weight gain", "setting": "[2]; RH 75%, 30 days", "value": 5.56, "unit": "%"}, {"measurement": "Color and trait", "setting": "[2]; RH 75%, 30 days", "value": "Off-white"}, {"measurement": "Crystal form", "setting": "[2]; RH 75%", "value": "Amor-"}, {"measurement": "% Purity", "setting": "[2]; RH 90%, 5 days", "value": 99.57, "unit": "%"}, {"measurement": "% Weight gain", "setting": "[2]; RH 90%, 5 days", "value": 7.45, "unit": "%"}, {"measurement": "Color and trait", "setting": "[2]; RH 90%, 5 days", "value": "Off-white"}, {"measurement": "% Purity", "setting": "[2]; RH 90%, 10 days", "value": 99.54, "unit": "%"}, {"measurement": "% Weight gain", "setting": "[2]; RH 90%, 10 days", "value": 8.67, "unit": "%"}, {"measurement": "Color and trait", "setting": "[2]; RH 90%, 10 days", "value": "Off-white"}, {"measurement": "% Purity", "setting": "[2]; RH 90%, 30 days", "value": 99.55, "unit": "%"}, {"measurement": "% Weight gain", "setting": "[2]; RH 90%, 30 days", "value": 9.53, "unit": "%"}, {"measurement": "Color and trait", "setting": "[2]; RH 90%, 30 days", "value": "Off-white"}, {"measurement": "Crystal form", "setting": "[2]; RH 90%", "value": "Amor-"}]}
